{
  "source": "patent US8741897B2",
  "about": "“Glucocorticoid mimetics, methods of making them, pharmaceutical compositions and uses thereof” (Boehringer Ingelheim Pharmaceuticals Inc., priority 2003, dated 2014)",
  "data": [
    {"tested_on": "glucocorticoid receptor function", "assay": "one or more of the above assays (GR binding and glucocorticoid receptor cell assays: aromatase, IL-6, TAT, MMTV-Luc, IL-8, ICAM-Luc)", "type": "cell-based", "details": "assay not specified per compound", "values": [
      {"smiles": "COc1ccc(F)cc1C(C)(C)CC(O)(Cc1cc2ccncc2[nH]1)C1(F)CC1", "note": "(stereo not drawn) [2-(1-Fluorocyclopropyl)-4-(5-fluoro-2-methoxyphenyl)-4-methyl-1-(1H-pyrrolo[2,3-c]pyridin-2-yl)pentan-2-ol]", "activity as agonists of the glucocorticoid receptor function in one or more of the above assays": "agonists"},
      {"smiles": "CC(C)(CC(O)(Cc1cc2cc(Cl)ncc2[nH]1)C(F)(F)F)c1cc(Br)ccc1O", "note": "(stereo not drawn) [4-Bromo-2-[3-(5-chloro-1H-pyrrolo[2,3-c]pyridin-2-ylmethyl)-4,4,4-trifluoro-3-hydroxy-1,1-dimethylbutyl]phenol]", "activity as agonists of the glucocorticoid receptor function in one or more of the above assays": "potent agonists"},
      {"smiles": "Cc1cc2[nH]c(CC(O)(CC(C)(C)c3cc(Cl)cc4c3OCC4)C(F)F)cc2cn1", "note": "(stereo not drawn) [4-(5-Chloro-2,3-dihydrobenzofuran-7-yl)-1,1-difluoro-4-methyl-2-(6-methyl-1H-pyrrolo[3,2-c]pyridin-2-ylmethyl)pentan-2-ol]", "activity as agonists of the glucocorticoid receptor function in one or more of the above assays": "agonists"},
      {"smiles": "CC(C)(CC(O)(Cc1cc2cnccc2[nH]1)C(F)(F)F)c1cc(-c2cccnc2)ccc1O", "note": "(stereo not drawn) [4-Pyridin-3-yl-2-[4,4,4-trifluoro-3-hydroxy-1,1-dimethyl-3-(1H-pyrrolo[3,2-c]pyridin-2-ylmethyl)butyl]phenol]", "activity as agonists of the glucocorticoid receptor function in one or more of the above assays": "potent agonists"},
      {"smiles": "CCN(C)c1cc2cc(CC(O)(CC(C)(C)c3cc(F)ccc3OC)C(F)(F)F)[nH]c2cn1", "note": "(stereo not drawn) [2-[5-(Ethylmethylamino)-1H-pyrrolo[2,3-c]pyridin-2-ylmethyl]-1,1,1-trifluoro-4-(5-fluoro-2-methoxyphenyl)-4-methylpentan-2-ol]", "activity as agonists of the glucocorticoid receptor function in one or more of the above assays": "potent agonists"},
      {"smiles": "COc1ccc(Br)cc1C(C)(C)CC(O)(Cc1cc2cc(Cl)ncc2[nH]1)C(F)(F)F", "note": "(stereo not drawn) [4-(5-Bromo-2-methoxyphenyl)-2-(5-chloro-1H-pyrrolo[2,3-c]pyridin-2-ylmethyl)-1,1,1-trifluoro-4-methylpentan-2-ol]", "activity as agonists of the glucocorticoid receptor function in one or more of the above assays": "potent agonists"},
      {"smiles": "CC(C)Oc1cc2cc(CC(O)(CC(C)(C)c3cc(F)ccc3C(F)(F)F)C(F)(F)F)[nH]c2cn1", "note": "(stereo not drawn) [1,1,1-Trifluoro-4-(5-fluoro-2-trifluoromethylphenyl)-2-(5-isopropoxy-1H-pyrrolo[2,3-c]pyridin-2-ylmethyl)-4-methylpentan-2-ol]", "activity as agonists of the glucocorticoid receptor function in one or more of the above assays": "potent agonists"},
      {"smiles": "Cc1c(CC(O)(CC(C)(C)c2ccc(F)cc2O)C(F)(F)F)[nH]c2cnccc12", "note": "(stereo not drawn) [5-Fluoro-2-[4,4,4-trifluoro-3-hydroxy-1,1-dimethyl-3-(3-methyl-1H-pyrrolo[2,3-c]pyridin-2-ylmethyl)butyl]phenol]", "activity as agonists of the glucocorticoid receptor function in one or more of the above assays": "potent agonists"},
      {"smiles": "Cc1ccc(F)cc1C(C)(C)CC(O)(Cc1cc2[nH]c(=O)ccc2[nH]1)C(F)(F)F", "note": "(stereo not drawn) [2-[4-(5-Fluoro-2-methylphenyl)-2-hydroxy-4-methyl-2-trifluoromethylpentyl]-1,4-dihydropyrrolo[3,2-b]pyridin-5-one]", "activity as agonists of the glucocorticoid receptor function in one or more of the above assays": "potent agonists"},
      {"smiles": "COc1ccc(-c2cccnc2)cc1C(C)(C)CC(O)(Cc1cc2cnccc2[nH]1)C(F)(F)F", "note": "(stereo not drawn) [1,1,1-Trifluoro-4-(2-methoxy-5-pyridin-3-ylphenyl)-4-methyl-2-(1H-pyrrolo[3,2-c]pyridin-2-ylmethyl)pentan-2-ol]", "activity as agonists of the glucocorticoid receptor function in one or more of the above assays": "potent agonists"},
      {"smiles": "CC(=O)c1ccc2[nH]c(CC(O)(CC(C)(C)c3cc(Cl)cc4c3OCC4)C(F)(F)F)cc2n1", "note": "(stereo not drawn) [1-{2-[4-(5-Chloro-2,3-dihydrobenzofuran-7-yl)-2-hydroxy-4-methyl-2-trifluoromethylpentyl]-1H-pyrrolo[3,2-b]pyridin-5-yl}ethanone]", "activity as agonists of the glucocorticoid receptor function in one or more of the above assays": "potent agonists"},
      {"smiles": "CC(C)(CC(O)(Cc1cc2cc(-c3ccc(F)cc3)ncc2[nH]1)C(F)(F)F)c1cccc(F)c1", "note": "(stereo not drawn) [1,1,1-Trifluoro-4-(3-fluorophenyl)-2-[5-(4-fluorophenyl)-1H-pyrrolo[2,3-c]pyridin-2-ylmethyl]-4-methylpentan-2-ol]", "activity as agonists of the glucocorticoid receptor function in one or more of the above assays": "potent agonists"}
    ]}
  ]
}
